This is an account of results in patent US3956510A, “Certain mixed antibacterials” (priority 1974, dated 1976).

Assay [1] relates to Pseudomonas aeruginosa. Conditions: alone; is reported; cited from earlier work.
For assay [2], the system named is Pseudomonas aeruginosa. Briefly: bacteriostatic activity / minimum inhibitory concentration against Pseudomonas aeruginosa. The class given is cell-based.
Assay [3] deals with bacteria. Particulars: cited from earlier work.

Consider `Oc1cc(Cl)ccc1Oc1ccc(Cl)cc1Cl` [2,4,4'-trichloro-2'-hydroxydiphenyl ether], for which, in assay [1], the minimum inhibitory concentration result is “greater than 300 ppm”. Besides, the “activity in the presence of a surfactant” value in assay [2] (in the presence of a surfactant such as soap) was “no practical activity is demonstrable”.
`O=C(Nc1ccc(Br)cc1)c1cc(Br)cc(Br)c1O` [3,4',5-tribromo salicylanilide]: the bacteriostatic activity in assay [2] (alone, under the most ideal conditions) is listed as 75 ppm; in assay [2] (with 2% soap, based on active ingredient), 160 ppm.
For benzalkonium chloride, in assay [3] (dried bacteria coated with a greasy film, Rahm 1946), the “bactericidal effect on dried bacteria coated with a greasy film” value is on record as “can survive many hours of contact”. Also, the bactericidal effect result in assay [3] (ordinarily) is given as “ordinarily kills bacteria”.
